# Results: US20220401560A1, “PEPTIDE ENCAPSULATING FERRITIN” (Ajinomoto Co., Inc., priority 2019, published 2022)
# No end group written: not given here.
# Tests used:
# SKBR-3 cell = experiment: Cell incorporation test by FACS in SKBR-3 cell; format: cell-based, human; conditions: 24 hours, FTH 100, 200 and 400 nM, or peptide without FTH encapsulation at the same peptide concentrations
# Method: A human breast cancer derived SKBR-3 cell (20,000 cell/well, 96-well plate) was added to 100 μL media that were produced by adding the PKC-F encapsulating FTH to evaluation media (Opti-MEM™ (Thermo Fisher Scientific Inc.)+1% non-essential amino acid solution (Thermo Fisher Scientific Inc.)+1% penicillin—streptomycin (Nacalai Tesque, Inc.)) at final concentrations of 100 nM (PKC-F concentration 0.86 μM), 200 nM (PKC-F concentration 1.72 μM) and 400 nM (PKC-F concentration 3.44 μM), respectively, and then cultured at 37° C. The transferrin receptor TfR was expressed in the SKBR-3 cell. […] After that 100 μL of an Opti-MEM™ medium was added, and the cells were transferred to a plate for fluorescence-activated cell sorting (FACS), and then subjected to centrifugal separation at 400×g for 5 minutes. The cells for each were suspended in a FACS buffer (Attune™ Focusing Fluid, Thermo Fisher Scientific Inc.), and analyzed by FACS (Attune NxT, Thermo Fisher Scientific Inc.).
# The cell incorporation of the obtained FAM-SV40 encapsulating FTH was evaluated. […]
# After 100 μL of the Opti-MEM™ medium was added, the cells were transferred to the plate for fluorescence-activated cell sorting (FACS), and then subjected to centrifugal separation at 400×g for 5 minutes. […]
# ferritin (FTH) = biological target: T1, ferritin (FTH) (Homo sapiens, UniProt P02794); experiment: Search for peptides capable of being encapsulated into ferritin by disassembly/reassembly process, LC-MS detection; conditions: encapsulation into ferritin (FTH); three trials
# T1 construct: made in house; host or cells: Escherichia coli BL21 (DE3), plasmid pET20-FTH
# Method: Peptides capable of being encapsulated into ferritin by disassembly/reassembly process were searched. In the disassembly/reassembly process, 1 mL of a 50 mM glycine hydrochloride buffer (pH 2.3) containing FTH at a final concentration of 5 mg/mL and the peptide at a final concentration of 0.5 mM, was left to stand at room temperature for 15 minutes. Next, 310 μL of a 1 M Tris hydrochloride buffer (pH 9.0) was added for neutralization, and left to stand at room temperature for 3 hours. After the standing, 1.2 mL of a 50 mM Tris hydrochloride buffer (pH 8.0) was added, and centrifuged (at 15,000 rpm for one minute). Thereafter, 2.5 mL of its supernatant was injected into a desalting column PD-10 (Sephadex G-25 filled product, GE Healthcare Inc.) equilibrated with a 50 mM Tris hydrochloride buffer (pH 8) for the elusion with 3.0 mL of a 50 mM Tris hydrochloride buffer (pH 8.0) to separate non-encapsulated peptides and ferritin. A whole amount (3.0 mL) of the resulting solution was concentrated to 0.1 mL by centrifugal ultrafiltration using Vivaspin 20-100K (GE Healthcare Inc.). The operation of adding 10 mL of a 50 mM Tris hydrochloride buffer to the concentrated solution and then concentrating was repeated twice to remove peptides that were not removed by PD-10 to obtain 0.1 mL of a sample solution. For the LC-MS analysis, 50 p1 of a 1 M glycine hydrochloride buffer (pH 2.3) was added to 50 μL of the sample solution and then the resulting solution was left to stand at room temperature for 15 minutes. To the solution, 900 μL of ethanol was added. Next, the resulting solution was stirred vigorously and then centrifuged (at 15,000 rpm for five minutes) for collection of the supernatant. The supernatant was analyzed using LCMS-2020 (Shimadzu Corporation) as LC-MS, Inertsil (Registered trademark) as a column, ODS-3, particle diameter of 2 μm and 2.1 mm×50 mm (GL science). Thereafter, 10 μL of the sample injected into the column was eluded at a flow rate of 0.2 mL/min for 10 minutes such that a mixing ratio of a solution A (0.1% formic acid/99.9% acetonitrile) and a solution B (50% water/50% acetonitrile) is from 95:5 to 95:5.
# The encapsulation of the peptide into ferritin was studied by comparing in terms of the amount of the peptide detected by LC/MS between the sample prepared by encapsulating the peptide into ferritin at the disassembly/reassembly process and the sample prepared simply by mixing ferritin with the peptide. For example, ClAc-FHC was eluted at a retention time of 0.8 minute. […] However, the peak was not observed for the sample prepared by simply mixing the peptide with ferritin without performing the disassembly/reassembly process (FIG. 12B). FIG. 13 to FIG. 17 illustrate LC-MS results for FTH in which the peptide was encapsulated at the disassembly/reassembly process.
# T1 sequence (P02794 whole entry): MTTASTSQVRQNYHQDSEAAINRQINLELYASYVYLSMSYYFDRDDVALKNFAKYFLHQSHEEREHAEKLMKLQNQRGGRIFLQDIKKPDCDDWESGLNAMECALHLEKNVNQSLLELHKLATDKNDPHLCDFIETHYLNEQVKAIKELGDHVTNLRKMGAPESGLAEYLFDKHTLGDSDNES
substance,measurement,setting,value
"5(6)-FAM-CGGPKKKRKVG (SEQ ID NO: 10) ({5(6)‑FAM}-CGGPKKKRKVG) [FAM-SV40, fluorescent dye-modified peptide, linear]",fluorescence intensity of cells by FACS,SKBR-3 cell,not observed
same,encapsulation,ferritin (FTH),A (“A” represents peptides with three times of confirmation of encapsulation.)
